Patent US11717536B2, “Treatment for periodontitis” (THE UNIVERSITY OF MELBOURNE, priority 2017, dated 2023)
Entries after “also recorded” stand apart in the source; their conditions may differ. Marks after values point to notes of the source that are not given here.

Columns and labels:
[1] = system: Streptococcus sanguinis (NCTC 7863); test: Six species polymicrobial biofilm in constant-depth film fermenter, species composition: S. sanguinis; type: cell-based
Experimental: (§1) To model supragingival plaque six representative oral bacterial species, Streptococcus sanguinis (NCTC 7863), Streptococcus mutans Ingbritt, Actinomyces naeslundii (NCTC 10301), Veillonella parvula (ATCC 17745), Lactobacillus casei (NCDO 161) and Fusobacterium nucleatum (ATCC 10953) (Table 5) were cultured as a polymicrobial biofilm on a human enamel substratum in a constant-depth film fermenter (CDFF; Cardiff University, UK). The CDFF was housed in a 37° C. incubator under anaerobic conditions which were maintained by a constant flow of 5% CO2 in N2 at 1 L/h. The CDFF contained 15 removable polytetrafluoroethylene (PTFE) pans on a circular platform that was rotated at a constant speed of three rpm. The biofilms were grown on three enamel blocks (see below) in each PTFE pan using an artificial saliva medium (ASM, 2.5 g/L mucin type II (porcine, gastric, Sigma), 2.0 g/L bacteriological peptone (Oxoid), 2.0 g/L tryptone (Oxoid), 1.0 g/L yeast extract (Oxoid), 0.35 g/L NaCl, 0.2 g/L KCl, 0.2 mg/L vitamin K, 1 mg/L haemin and 0.1 g/L cysteine hydrochloride) at a constant flow rate of 30 mL/h. Prior to inoculation, the CDFF pan surfaces were conditioned for 24 h with ASM at a flow rate of 10 mL/h (McBain et al (2003) J Appl Microbiol. 94(4):655-66). In order to mimic in vivo bacterial growth conditions in the oral cavity with dietary sugar intake and to provide a high cariogenic challenge, a 1% (w/v) sucrose solution in ASM was pumped into the CDFF four times a day at four hourly intervals with a flow rate of 30 mL/h for 10 min.
Three treatments were applied to the polymicrobial biofilms: 290 ppm fluoride with 220 ppm fluoride as SnF2 and 70 ppm fluoride as NaF (referred to as SnF2), 2% CPP-ACP and 2% CPP-ACP-SnF2. These treatments were compared with the control in which the test solution was replaced with ASM. Each treatment was applied using two 10 min pulses of the test solution in ASM with a flow rate of 30 mL/h. The first pulse started 30 min prior to the first sucrose pulse of the morning and the second started 3 h 30 min after the final sucrose pulse of the day.
On day 6, 12 and 19 after inoculation four pans were removed aseptically from the CDFF and replaced with blank sterile pans. Enamel blocks from the pans were removed for bacterial enumeration and transverse microradiography.
Planktonic and loosely attached bacterial cells were firstly removed from the enamel blocks by light washing with 100 μL ASM. […]
(§2) For each timepoint, DNA was extracted separately from 8-9 enamel blocks using PowerLyzer® PowerSoil® DNA Isolation Kits (MoBio Laboratories) following the manufacturers “Vacuum Protocol” with a Precellys® bead homogeniser (Bertin Technologies). Samples were quantified using a Qubit™ dsDNA HS assay kit (Life Technologies) before being stored at −80° C. […]

[2] = system: Veillonella parvula (ATCC 17745); test: Six species polymicrobial biofilm in constant-depth film fermenter, species composition: V. parvula; type: cell-based
Experimental: as §1
(§3) Three treatments were applied to the polymicrobial biofilms: 290 ppm fluoride with 220 ppm fluoride as SnF2 and 70 ppm fluoride as NaF (referred to as SnF2), 2% CPP-ACP and 2% CPP-ACP-SnF2. […]
as §2

Leptothrichia shahii = test: Clinical trial: plaque microbial analysis, Leptothrichia shahii; type: in vivo; details: 18.8 mg CPP-ACP sugar-free gum, 20 min six times per day, 14 days, vs no gum chewing; supragingival plaque
Excerpt: Following the completion of the examination and supragingival plaque collection, participants received a supragingival scaling, clean and prophylaxis of all their teeth. At the completion of the last examination for leg 3, each participant received a professional fluoride treatment.
Participants had all supragingival plaque collected from the buccal surfaces of their maxillary molars (teeth 17, 16, 26 & 27) with a sterile scaling instrument. The plaque samples from each tooth were placed in separate sterile tubes, to give four samples per participant.
Genomic DNA was extracted from the plaque using a combination of mechanical disruption of the cells via a Precellys homogeniser and the chemical extraction and purification of the genomic DNA via the PowerLyzer PowerSoil DNA Isolation Kit (MoBio). Quantitation of the extracted DNA was achieved using a Qubit dsDNA High Sensitivity Assay kit (ThermoFisher), before 5 ng DNA was used as template in a PCR reaction that amplified the V4 variable region of the 16S ribosomal RNA gene and individually barcoded the PCR product from each sample. The barcoded DNA was then sequenced using an Ion Torrent Personal Genome machine and Torrent Suite™ Software (ThermoFisher).
Analysis of the resulting sequence of the 16S ribosomal RNA gene enabled identification of the bacterial population present in each sample, down to the species level. […]

[3] = system: Streptococcus mutans Ingbritt; test: Six species polymicrobial biofilm in constant-depth film fermenter, species composition: S. mutans; type: cell-based
Experimental: as §1, §3, §2

[4] = 19 days, mean ± standard deviation, n = 5-21

Casein phosphopeptide-amorphous calcium phosphate [CPP-ACP]
S. sanguinis as a percentage of total bacteria in the biofilm [1, 4]: 19.85 ± 2.86^bc % | change in abundance of S. sanguinis relative to the control (in words) ([1]; twice daily treatment, day 19): significantly increased; also recorded: reproducible increases | V. parvula as a percentage of total bacteria in the biofilm [2, 4]: 6.71 ± 0.89^c % | change in abundance of V. parvula relative to the control (in words) ([2]; twice daily treatment, day 19): remained relatively constant | % decrease in relative abundance, Leptothrichia shahii (Leptothrichia shahii): 73% (p < 0.01) | S. mutans as a percentage of total bacteria in the biofilm [3, 4]: 58.70 ± 5.47^b % | change in abundance of S. mutans relative to the control (in words) ([3]; twice daily treatment, day 19): remained relatively constant
